Several values for one entry are separate records, joined by “and”; a condition that tells them apart may be missing. Identical values can stand only once. Like-named read-outs stand apart in the source and are kept apart here.
Columns and labels:
canine TRPM8 = canine TRPM8 (Canis lupus familiaris, UniProt Q1A7N1); test: In Vitro Canine TRPM8 Functional Assay (intracellular Ca2+ fluorescence, icilin challenge); type: cell-based; details: for IC50: icilin at ~80% maximal response
Description: The functional activity of compounds of the formula (I) was determined by measuring changes in intracellular calcium concentration using a Ca^2+-sensitive fluorescent dye. The changes in fluorescent signal were monitored by a fluorescence plate reader, either a FLIPR™ (Molecular Devices) or FDSS (Hamamatsu).
At 24 hrs prior to assay, HEK293 cells stably expressing canine TRPM8 were seeded in culture medium in black wall, clear-base poly-D-lysine coated 384-well plates (BD Biosciences, NJ, USA) and grown overnight in 5% CO2 at 37° C. On assay day, growth media was removed and cells were loaded with Calcium 3 Dye (Molecular Devices) for 35 min at 37° C., under 5% CO2 and then for 25 min at room temperature and atmosphere. Subsequently, cells were tested for agonist-induced increases in intracellular Ca^2+ levels using FLIPR™ or FDSS. Cells were challenged with a compound of the Formula (I) (at varying concentrations) and intracellular Ca^2+ was measured for 5 min prior to the addition of icilin to all wells to achieve a final concentration that produces approximately an 80% maximal response. EC50 or IC50 values for compounds of the present invention were determined from eight-point dose-response studies. Curves were generated using the average of quadruplicate wells for each data point.

Male Sprague Dawley rats = test: Inhibition of Icilin-Induced "Wet-Dog" Shakes in Rats; type: in vivo; details: rat, dose 10, p.o.
Description: Similar shaking or jumping behavior was also evident in mice, rabbits, cats, dogs and monkeys. In humans, icilin produced a sensation of coolness on contact with mucous membranes, cold prickling when 0.1 mg was dropped on the tongue and coldness in the mouth, pharynx and chest lasting 30-60 minutes when 5-10 mg was ingested orally (Wei E T, Seid D A, J Pharm Pharmacol. 1983, 35, 110). The inhibition or reversal of icilin-induced shaking behaviors in rodents provides evidence for the utility of TRPM8 antagonists of the formula (I) in treating or preventing a disease, syndrome, disorder, or condition in a subject in which the disease, syndrome, disorder or condition is affected by the modulation of TRPM8 receptors.
Male Sprague Dawley rats (220-450 g, Charles River Labs, n=6-9/treatment) may be used to evaluate the ability of selected compounds of the formula (I) to block icilin-induced “wet-dog” shakes (WDS). Compounds of the formula (I) may be administered in an appropriate vehicle, such as hydroxypropyl-β-cyclodextrin (HPIβCD), methocellulose, 10% Solutol, or H2O, or the like, by the appropriate route, i.p. or p.o., 30-120 minutes before icilin. Icilin may be administered in PEG-400 or 10% solutol/H2O, at 1.0 or 3.0 mg/kg, i.p. and spontaneous “wet-dog” shakes may be counted 10-20 minutes post-icilin.

TRPM8 = TRPM8 (Mus musculus (Mouse), UniProt Q8R4D5); details: TRPM8 transfected cells (Behrendt H J et al. 2004); cited from earlier work
[1] = HEK293 cells stably expressing canine TRPM8
[2] = HEK293, @ 0.2 μM, HEK293 cells stably expressing canine TRPM8, read-out: % Inh (%) @ 0.2 μM
[3] = vehicle 20% HPβCD, form CO2−Na+
[4] = HEK293, read-out: % Inh (%) @ 0.2 μM

Chain of canine TRPM8 (Q1A7N1 1-1104): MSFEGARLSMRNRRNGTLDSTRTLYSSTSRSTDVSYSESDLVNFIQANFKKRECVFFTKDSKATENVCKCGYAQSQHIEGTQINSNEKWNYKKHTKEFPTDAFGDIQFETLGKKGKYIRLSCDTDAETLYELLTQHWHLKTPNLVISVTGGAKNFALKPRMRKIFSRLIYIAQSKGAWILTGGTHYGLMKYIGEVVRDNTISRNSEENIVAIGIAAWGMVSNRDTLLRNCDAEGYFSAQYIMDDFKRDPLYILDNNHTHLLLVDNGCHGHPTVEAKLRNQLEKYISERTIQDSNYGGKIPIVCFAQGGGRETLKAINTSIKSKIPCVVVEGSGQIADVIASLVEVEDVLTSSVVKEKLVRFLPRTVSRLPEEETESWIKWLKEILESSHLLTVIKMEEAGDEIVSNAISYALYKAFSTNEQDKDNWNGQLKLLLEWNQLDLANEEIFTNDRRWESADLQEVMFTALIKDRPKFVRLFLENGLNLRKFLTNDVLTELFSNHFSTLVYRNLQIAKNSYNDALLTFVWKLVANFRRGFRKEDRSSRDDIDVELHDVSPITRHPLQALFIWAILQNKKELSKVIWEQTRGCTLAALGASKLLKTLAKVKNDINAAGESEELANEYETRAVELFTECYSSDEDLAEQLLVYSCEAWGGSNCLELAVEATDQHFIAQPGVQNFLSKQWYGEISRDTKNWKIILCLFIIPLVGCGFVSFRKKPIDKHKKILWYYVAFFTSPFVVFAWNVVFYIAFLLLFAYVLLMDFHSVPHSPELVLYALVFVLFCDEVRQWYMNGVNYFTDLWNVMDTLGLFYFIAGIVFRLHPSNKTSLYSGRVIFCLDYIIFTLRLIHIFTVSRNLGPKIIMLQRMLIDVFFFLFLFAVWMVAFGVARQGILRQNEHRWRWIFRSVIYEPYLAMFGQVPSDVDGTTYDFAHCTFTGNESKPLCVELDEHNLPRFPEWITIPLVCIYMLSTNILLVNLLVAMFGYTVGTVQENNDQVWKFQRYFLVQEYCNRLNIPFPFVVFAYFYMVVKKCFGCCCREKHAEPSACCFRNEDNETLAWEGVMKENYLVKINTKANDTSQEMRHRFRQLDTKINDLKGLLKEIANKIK
Chain of TRPM8 (Q8R4D5 whole entry): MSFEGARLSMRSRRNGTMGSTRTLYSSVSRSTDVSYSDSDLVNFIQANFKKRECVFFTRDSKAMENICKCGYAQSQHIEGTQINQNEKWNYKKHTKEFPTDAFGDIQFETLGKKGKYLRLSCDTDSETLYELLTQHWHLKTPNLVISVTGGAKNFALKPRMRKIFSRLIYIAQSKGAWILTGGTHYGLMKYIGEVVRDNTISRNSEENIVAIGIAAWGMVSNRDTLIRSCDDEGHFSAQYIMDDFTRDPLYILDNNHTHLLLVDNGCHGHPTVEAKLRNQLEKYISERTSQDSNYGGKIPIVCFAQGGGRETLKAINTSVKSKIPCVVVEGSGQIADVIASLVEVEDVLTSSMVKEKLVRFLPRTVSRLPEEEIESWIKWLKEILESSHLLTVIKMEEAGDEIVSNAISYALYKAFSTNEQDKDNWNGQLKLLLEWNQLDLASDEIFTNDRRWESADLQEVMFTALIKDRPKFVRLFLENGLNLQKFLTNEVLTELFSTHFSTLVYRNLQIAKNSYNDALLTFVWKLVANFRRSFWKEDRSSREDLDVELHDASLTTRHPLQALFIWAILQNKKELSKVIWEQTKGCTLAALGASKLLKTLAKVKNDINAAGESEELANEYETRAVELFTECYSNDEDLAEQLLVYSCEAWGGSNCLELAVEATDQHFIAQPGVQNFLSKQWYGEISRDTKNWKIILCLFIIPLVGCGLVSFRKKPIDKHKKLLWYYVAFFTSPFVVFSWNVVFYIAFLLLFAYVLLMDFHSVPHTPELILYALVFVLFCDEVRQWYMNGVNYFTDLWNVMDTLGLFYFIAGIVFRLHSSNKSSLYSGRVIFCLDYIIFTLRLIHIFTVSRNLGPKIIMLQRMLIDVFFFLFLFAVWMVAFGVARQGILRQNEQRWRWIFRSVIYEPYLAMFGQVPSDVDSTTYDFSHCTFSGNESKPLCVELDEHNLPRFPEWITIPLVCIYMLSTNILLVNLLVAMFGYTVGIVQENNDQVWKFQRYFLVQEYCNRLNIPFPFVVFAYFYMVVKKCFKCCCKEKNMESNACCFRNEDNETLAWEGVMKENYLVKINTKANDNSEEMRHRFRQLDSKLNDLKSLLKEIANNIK

| SMILES | % Inh (%) @ 0.2 μM (canine TRPM8; [1]) [%] | inhibition at 0.2 µM (canine TRPM8; [2]) [%] | IC50 (canine TRPM8; [1]) | inhibition at 0.2 µM (canine TRPM8; [4]) [%] | other results |
| --- | --- | --- | --- | --- | --- |
| O=S(=O)(c1ccccc1)N(Cc1ccc(F)c(C(F)(F)F)c1)c1nc2ccc(Cl)cn2c1Cl [Compound 8] | 96 | 97 | 18.3 nM and 23.5 nM and 28.6 nM |  | % Inhibition (Male Sprague Dawley rats; vehicle 10% Solutol, form Hydrochloride): 15.5% |
| Cc1c(N(Cc2ccc(C(F)(F)F)c(F)c2)S(=O)(=O)c2ccccc2)nc2ccc(Cl)cn12 [Compound 38] |  | 100 |  |  | % Inhibition (Male Sprague Dawley rats; vehicle 20% HPβCD, form Hydrochloride): 6.5% |
| Cc1c(N(Cc2ccc(OC(F)(F)F)cc2)S(=O)(=O)c2ccc(C(=O)[O-])cc2)nc2ccccn12.[Na+] [Compound 107] | 101 |  | 5.68 nM |  | % Inhibition (Male Sprague Dawley rats; [3]): −20.6% |
| CC(C)c1c(N(Cc2ccc(OC(F)(F)F)cc2)S(=O)(=O)c2ccc(C(=O)[O-])cc2)nc2ccccn12.[Na+] [Compound 109] | 101 |  | 2.31 nM |  | % Inhibition (Male Sprague Dawley rats; [3]): −7.5% |
| Cc1c(N(Cc2ccc(OC(F)(F)F)cc2)S(=O)(=O)c2ccc(C(=O)O)cc2)nc2ccc(Cl)cn12 [Compound 113, Sodium 4-(N-(6-Chloro-3-methylimidazo[1,2-a]pyridin-2-yl)-N-(4-trifluoromethoxybenzyl)sulfamoyl)benzoate] |  |  | 14.6 nM | 102 |  |
| Cc1c(N(Cc2ccc(F)c(F)c2)S(=O)(=O)c2ccc(C(=O)O)cc2)nc2ccc(Cl)cn12 [Compound 114] |  |  |  | 38 |  |
| Cc1c(N(Cc2ccc(F)c(C(F)(F)F)c2)S(=O)(=O)c2ccc(C(=O)O)cc2)nc2ccc(Cl)cn12 [Compound 115] |  |  |  | 96 |  |
| COC(=O)c1ccc(S(=O)(=O)N(Cc2ccc(OC(F)(F)F)cc2)c2nc3ccccn3c2Cl)cc1 [Compound 116] |  | 102 | 5.29 nM |  |  |
| Cc1cccn2c(C)c(N(Cc3ccc(OC(F)(F)F)cc3)S(=O)(=O)c3ccc(C(=O)[O-])cc3)nc12.[Na+] [Compound 117] | 101 |  | 13.5 nM |  |  |
| COC(=O)c1ccc(S(=O)(=O)N(Cc2ccc(OC(F)(F)F)cc2)c2nc3ccc(F)cn3c2C)cc1 [Compound 118, Methyl 4-(N-(6-fluoro-3-methylimidazo[1,2-a]pyridin-2-yl)-N-(4-(trifluoromethoxy)benzyl)sulfamoyl)benzoate] |  | 100 | 18 nM |  |  |
| COC(=O)c1ccc(S(=O)(=O)N(Cc2ccc(F)c(C(F)(F)F)c2)c2nc3ccc(F)cn3c2C)cc1 [Compound 119, Methyl 4-(N-(6-fluoro-3-methylimidazo[1,2-a]pyridin-2-yl)-N-(4-fluoro-3-(trifluoromethyl)benzyl)sulfamoyl)benzoate] |  | 100 | 23.9 nM |  |  |
| Cc1c(N(Cc2ccc(OC(F)(F)F)cc2)S(=O)(=O)c2ccc(C(=O)O)cc2)nc2ccc(F)cn12 [Compound 120, Sodium 4-(N-(6-fluoro-3-methylimidazo[1,2-a]pyridin-2-yl)-N-(4-(trifluoromethoxy)benzyl)sulfamoyl)benzoate] |  |  | 12.2 nM | 102 |  |
| Cc1c(N(Cc2ccc(F)c(C(F)(F)F)c2)S(=O)(=O)c2ccc(C(=O)O)cc2)nc2ccc(F)cn12 [Compound 121, Sodium 4-(N-(6-fluoro-3-methylimidazo[1,2-a]pyridin-2-yl)-N-(4-fluoro-3-(trifluoromethyl)benzyl)sulfamoyl)benzoate] |  |  | 32.8 nM | 101 |  |
| Cc1c(N(Cc2ccc(OC(F)(F)F)cc2)S(=O)(=O)c2ccc(C(=O)O)cc2)nc2c(F)cccn12 [Compound 122] | 99 |  | 4.03 nM |  |  |
| O=C1NC(c2cccc([N+](=O)[O-])c2)=CCN1c1ccccc1O [icilin] |  |  |  |  | EC50 (TRPM8): 200 nM |
